Calls of active or inactive are those of the source. The calls are words filed in the database; no cut-off is given here.
Columns and labels:
[1] = target: GABA-A receptor; anion channel (Rattus norvegicus) (UniProt O09028+P15431+P18506+P18508+P19969+P20236+P23574+P23576+P28471+P28473+P30191+P62813+P63079+P63138+Q91ZM7+Q9ES14); assay: Competitive inhibition of [35S]TBPS binding to gamma-aminobutyric acid type-A receptor in Rattus norvegicus (rat) brain membranes at 50 nM incubated for 90 min by Scatchard plot; details: Membrane
[2] = tested on: Musca domestica; assay: Insecticidal activity against WHO susceptible Musca domestica (house fly) assessed as compound level causing mortality per fly applied through topical application; format: functional
[3] = target: GABA-A receptor; anion channel; assay: Displacement of [35S]TBPS from gamma-aminobutyric acid type-A receptor in Rattus norvegicus (rat) brain membranes incubated for 90 min by liquid scintillation counting method; set-up: species or system Membrane

SMILES | inhibition [1] | LD50 [2] [ng] | IC50 [3] [nM]
ClC1=C(Cl)[C@]2(Cl)[C@H]3[C@H]([C@@H]4C[C@H]3N=N4)[C@@]1(Cl)C2(Cl)Cl | Active | 2.8 | 48.4
[O-][N+]1=N[C@@H]2C[C@H]1[C@H]1[C@@H]2[C@@]2(Cl)C(Cl)=C(Cl)[C@]1(Cl)C2(Cl)Cl (relative stereo) | – | 3.1 | 119
ClC1=C(Cl)[C@]2(Cl)[C@@H]3[C@@H]4CC[C@@H](C4)[C@@H]3[C@@]1(Cl)C2(Cl)Cl [REL-ALDRIN] | – | 18.5 | 53.7
